Data from PMC5601235, “In vivo characterisation of a therapeutically relevant self‐assembling ^18F‐labelled β‐sheet forming peptide and its hydrogel using positron emission tomography” (Journal of Labelled Compounds & Radiopharmaceuticals, 2017).
Like-named read-outs stand apart in the source and are kept apart here. Where a SMILES comes first, the peptide text is derived from it. The star is where a group is joined. X1 = O=C(CO/N=C/c1cccnc1F)*

Experiments:
[1] = Preclinical PET biodistribution of [^18F]FPCA‐F9 solution after tail‐vein injection; assay type: in vivo, C3H mice; conditions: C3H, mouse, iv, 13 MBq, total radioactivity, i.v. tail vein; for SUV at 1 h: 1 hour postinjection; for SUV at 20 min: 20 minutes postinjection
Experimental: C3H mice were anaesthetised using isoflurane induction 4% and maintained 1.5% in 70% N2O and 30% O2 mixture. [^18F]FPCA‐F9 solution was injected in the tail vein (13 MBq, n = 4) of healthy mice or [^18F]FPCA‐F9 hydrogel was injected subcutaneously into the right flank of different healthy mice (2‐5 MBq, n = 3). The acquisition protocol parameters consisted of a preliminary CT scan to determine attenuation correction factors followed by a 1‐ and 4‐hour PET acquisition time for [^18F]FPCA‐F9 solution and hydrogel, respectively. Major excretory organs, including liver, kidney and bladder as well as bone and hydrogel region (in [^18F]FPCA‐F9 hydrogel scans only), were delineated on CT and uptake was quantified as SUV.

[2] = [^18F]FPCA‐F9 preclinical metabolite analysis (SE‐HPLC of plasma, kidney, liver, urine); assay type: in vivo, C3H mice
Experimental: […] Plasma was extracted from whole blood samples using a Thermo ALC multispeed refrigerated centrifuge PK121R (8720 g, 4°C for 3 minutes). Kidney and liver samples were homogenised and centrifuged (8720 g, 4°C for 3 minutes), and the supernatant was removed for HPLC analysis. Urine samples were directly injected onto HPLC without sample preparation using a GE Superdex peptide 10/300 GL (GE Healthcare, UK) eluted with PBS (1 mL/min, 220 nm).

SUV at 1 h ([1]; bladder, n = 4, read-out: Bladder uptake): 47.4 ± 7.2 SUV
SUV at 20 min ([1]; bladder, begins to plateau, n = 4, mean ± SD, read-out: Bladder uptake): 53.4 ± 16.6 SUV
SUV at 1 h ([1]; bone, n = 4, read-out: Bone accumulation): 7.8 ± 2.5 SUV
SUV ([1]; kidney, within 5 minutes postinjection, n = 4, read-out: Kidney uptake): 5.9 ± 1.9 SUV
SUV at 5 min ([1]; liver, 5 minutes postinjection, n = 4, read-out: Liver uptake): 1.4 ± 0.1 SUV
SUV at 20 min ([1]; liver, n = 4, read-out: Liver uptake): 0.7 ± 0.1 SUV
Plasma stability (in words) ([2]; in vivo, mouse plasma, metabolite analysis by SE‐HPLC): high plasma stability
Radioactivity in second peak at ~8 minutes (larger species, aggregation or protein interaction) ([2]; liver and kidney samples, SE‐HPLC): ~ 5%
Parent ([^18F]FPCA‐F9) fraction, kidney ([2]; mouse kidney homogenate supernatant after i.v. injection of monomer, after 60 minutes, SE‐HPLC radio‐detection, mean ± SD, n = 4): 95% ± 1%
Parent ([^18F]FPCA‐F9) fraction, liver ([2]; mouse liver homogenate supernatant after i.v. injection of monomer, after 60 minutes, SE‐HPLC radio‐detection (Superdex peptide 10/300 GL, PBS), mean ± SD, n = 4): 94% ± 0%
Parent ([^18F]FPCA‐F9) fraction, plasma ([2]; mouse plasma after i.v. injection of monomer, after 60 minutes, SE‐HPLC radio‐detection, mean, n = 4): 100%
Parent ([^18F]FPCA‐F9) fraction, urine ([2]; mouse urine after i.v. injection of monomer, after 60 minutes, SE‐HPLC radio‐detection, mean ± SD, n = 4): 95% ± 1%
Radioactivity in peak at ~12 minutes (larger species) ([2]; urine samples, SE‐HPLC): 5%
SMILES: NCCCC[C@H](NC(=O)[C@H](CCCCN)NC(=O)[C@H](Cc1ccccc1)NC(=O)[C@H](CCC(=O)O)NC(=O)[C@H](Cc1ccccc1)NC(=O)[C@H](CCCCN)NC(=O)[C@H](Cc1ccccc1)NC(=O)[C@H](CCC(=O)O)NC(=O)[C@H](Cc1ccccc1)NC(=O)CO/N=C/c1cccnc1F)C(=O)O [[^18F]FPCA‐F9] (X1-FEFKFEFKK-OH)
Metabolites of [^18F]FPCA‐F9 in liver, kidney, urine and plasma samples (in words) ([2]; SE‐HPLC, parent peak at ~18 minutes): none of the samples analysed showed any metabolite
